Measurements published in US11739098B2 (BRISTOL-MYERS SQUIBB COMPANY, priority 2017, dated 2023).

Experiments:
Type in all cases: cell-based
human TLR8 = biological target: T1, human TLR8 (Homo sapiens, UniProt Q9NR97); assay: TLR8 inhibition reporter assay (HEK-Blue cells, SEAP reporter, R848 stimulation); conditions: HEK-Blue cells overexpressing human TLR8, SEAP reporter, R848 15.9 μM
T1 construct: host or cells: HEK-Blue cells (HEK293-derived reporter line)
T1 sequence (Q9NR97 27-1041): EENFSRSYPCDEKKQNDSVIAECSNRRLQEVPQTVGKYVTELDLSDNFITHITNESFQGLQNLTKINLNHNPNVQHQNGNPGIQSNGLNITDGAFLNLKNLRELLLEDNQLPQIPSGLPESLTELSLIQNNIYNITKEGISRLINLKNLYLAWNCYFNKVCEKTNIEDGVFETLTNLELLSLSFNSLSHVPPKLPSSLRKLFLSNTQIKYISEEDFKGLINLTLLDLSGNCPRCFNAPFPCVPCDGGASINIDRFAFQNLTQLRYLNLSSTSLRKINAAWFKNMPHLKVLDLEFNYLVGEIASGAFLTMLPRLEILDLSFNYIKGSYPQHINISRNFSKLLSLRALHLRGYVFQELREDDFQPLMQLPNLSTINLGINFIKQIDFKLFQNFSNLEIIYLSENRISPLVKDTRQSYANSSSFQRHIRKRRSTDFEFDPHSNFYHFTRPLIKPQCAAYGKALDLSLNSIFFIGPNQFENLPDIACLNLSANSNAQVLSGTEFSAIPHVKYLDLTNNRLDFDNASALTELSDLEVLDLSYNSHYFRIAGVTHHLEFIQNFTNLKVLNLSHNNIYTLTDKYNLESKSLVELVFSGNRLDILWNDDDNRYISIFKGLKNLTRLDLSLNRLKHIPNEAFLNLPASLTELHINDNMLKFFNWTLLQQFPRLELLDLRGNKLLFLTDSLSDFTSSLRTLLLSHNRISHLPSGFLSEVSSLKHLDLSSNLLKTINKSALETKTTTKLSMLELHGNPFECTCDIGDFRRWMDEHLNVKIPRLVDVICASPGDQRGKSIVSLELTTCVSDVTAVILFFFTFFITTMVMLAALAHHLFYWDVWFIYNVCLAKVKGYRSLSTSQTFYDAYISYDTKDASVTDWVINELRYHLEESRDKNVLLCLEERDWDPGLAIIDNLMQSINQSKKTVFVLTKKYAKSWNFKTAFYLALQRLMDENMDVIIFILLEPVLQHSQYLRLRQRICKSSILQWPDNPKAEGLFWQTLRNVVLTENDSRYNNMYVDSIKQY
Summary of the method: (§1)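 Read-out is SEAP activity in HEK-Blue detection medium after 22 h at 37 °C, converted to percent inhibition against agonist-plus-DMSO and reference-inhibitor controls. Cells saw compound (0.05 nM–50 μM, 30 min, room temperature) before gardiquimod 7.5 μM, R848 15.9 μM or ODN2006 5 nM for TLR7, TLR8 and TLR9, respectively.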

human TLR7 = biological target: T2, human TLR7 (Homo sapiens, UniProt Q9NYK1); assay: TLR7 inhibition reporter assay (HEK-Blue cells, SEAP reporter, gardiquimod stimulation); conditions: HEK-Blue cells overexpressing human TLR7, SEAP reporter, gardiquimod 7.5 μM
T2 construct: host or cells: HEK-Blue cells (HEK293-derived reporter line)
T2 sequence (Q9NYK1 27-1049): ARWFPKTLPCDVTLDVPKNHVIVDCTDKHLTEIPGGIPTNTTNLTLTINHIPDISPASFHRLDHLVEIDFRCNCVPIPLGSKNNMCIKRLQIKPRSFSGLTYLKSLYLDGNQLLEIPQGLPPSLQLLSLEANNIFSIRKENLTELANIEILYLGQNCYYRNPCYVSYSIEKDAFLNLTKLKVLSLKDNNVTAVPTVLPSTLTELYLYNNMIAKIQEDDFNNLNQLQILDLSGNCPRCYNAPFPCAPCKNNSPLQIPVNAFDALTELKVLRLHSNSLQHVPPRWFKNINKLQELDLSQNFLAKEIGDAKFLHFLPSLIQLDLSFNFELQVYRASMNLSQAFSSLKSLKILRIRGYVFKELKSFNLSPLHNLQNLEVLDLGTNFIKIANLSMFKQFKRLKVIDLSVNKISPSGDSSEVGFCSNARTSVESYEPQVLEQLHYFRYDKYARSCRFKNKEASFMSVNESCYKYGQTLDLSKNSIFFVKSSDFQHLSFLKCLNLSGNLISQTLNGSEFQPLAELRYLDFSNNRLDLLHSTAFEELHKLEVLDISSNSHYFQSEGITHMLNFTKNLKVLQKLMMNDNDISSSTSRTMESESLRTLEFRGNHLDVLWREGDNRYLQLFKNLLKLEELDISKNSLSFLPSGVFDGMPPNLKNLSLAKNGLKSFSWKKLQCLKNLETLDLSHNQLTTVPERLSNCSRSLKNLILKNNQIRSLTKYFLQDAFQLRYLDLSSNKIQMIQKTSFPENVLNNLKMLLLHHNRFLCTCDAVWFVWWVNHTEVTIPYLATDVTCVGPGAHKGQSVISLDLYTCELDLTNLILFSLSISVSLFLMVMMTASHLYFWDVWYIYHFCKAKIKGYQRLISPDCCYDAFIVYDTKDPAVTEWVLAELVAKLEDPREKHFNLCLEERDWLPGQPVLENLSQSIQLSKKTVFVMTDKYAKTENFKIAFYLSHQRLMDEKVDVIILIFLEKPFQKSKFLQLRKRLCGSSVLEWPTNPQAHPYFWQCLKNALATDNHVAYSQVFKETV
Summary of the method: as §1

human TLR9 = biological target: T3, human TLR9 (Homo sapiens, UniProt Q9NR96); assay: TLR9 inhibition reporter assay (HEK-Blue cells, SEAP reporter, ODN2006 stimulation); conditions: HEK-Blue cells overexpressing human TLR9, SEAP reporter, ODN2006 5 nM
T3 construct: host or cells: HEK-Blue cells (HEK293-derived reporter line)
T3 sequence (Q9NR96 26-1032): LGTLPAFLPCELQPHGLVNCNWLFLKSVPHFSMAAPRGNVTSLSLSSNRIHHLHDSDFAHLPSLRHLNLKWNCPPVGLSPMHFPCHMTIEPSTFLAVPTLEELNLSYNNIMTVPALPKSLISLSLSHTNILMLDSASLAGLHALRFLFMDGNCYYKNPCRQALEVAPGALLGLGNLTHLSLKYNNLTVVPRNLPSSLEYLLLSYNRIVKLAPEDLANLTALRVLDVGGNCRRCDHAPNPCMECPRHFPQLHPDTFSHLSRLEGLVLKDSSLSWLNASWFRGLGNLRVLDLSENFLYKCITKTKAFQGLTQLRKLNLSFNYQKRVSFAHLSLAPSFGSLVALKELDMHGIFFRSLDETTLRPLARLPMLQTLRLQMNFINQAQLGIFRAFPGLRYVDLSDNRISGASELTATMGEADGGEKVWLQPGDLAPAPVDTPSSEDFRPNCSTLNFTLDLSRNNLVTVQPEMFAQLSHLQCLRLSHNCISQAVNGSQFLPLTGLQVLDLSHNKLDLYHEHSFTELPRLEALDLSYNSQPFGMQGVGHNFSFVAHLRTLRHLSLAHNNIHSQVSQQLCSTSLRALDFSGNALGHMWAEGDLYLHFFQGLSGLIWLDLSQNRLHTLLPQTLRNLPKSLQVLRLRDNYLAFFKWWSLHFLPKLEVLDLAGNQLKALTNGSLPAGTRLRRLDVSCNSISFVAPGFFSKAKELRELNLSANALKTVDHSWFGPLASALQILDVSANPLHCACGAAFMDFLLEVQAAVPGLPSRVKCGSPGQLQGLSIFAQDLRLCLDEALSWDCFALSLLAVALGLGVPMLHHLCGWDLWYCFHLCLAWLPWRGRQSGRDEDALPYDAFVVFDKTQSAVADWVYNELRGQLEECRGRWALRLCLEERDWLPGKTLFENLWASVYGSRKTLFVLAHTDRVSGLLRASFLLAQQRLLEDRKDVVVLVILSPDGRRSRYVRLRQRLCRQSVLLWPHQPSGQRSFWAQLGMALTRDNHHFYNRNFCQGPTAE
Summary of the method: as §1

SMILES | IC50 (human TLR8) [nM] | IC50 (human TLR7) [nM] | IC50 (human TLR9) [nM]
Cc1cc(-c2[nH]c3ccc(C4CCN(C(=O)CCN5CCC(F)(F)C5)CC4)cc3c2C(C)C)cn2nnnc12 [Example 626, 3-(3,3-difluoropyrrolidin-1-yl)-1-(4-(3-isopropyl-2-(8-methyltetrazolo[1,5-a]pyridin-6-yl)-1H-indol-5-yl)piperidin-1-yl)propan-1-one] | 100 to 1000 | < 100 | > 50000
Cc1nc2c(C)cc(-c3[nH]c4ccc(C5CCNCC5)cc4c3C(C)C)cn2c1C [Example 132, 6-(3-isopropyl-5-(piperidin-4-yl)-1H-indol-2-yl)-2,3,8-trimethylimidazo[1,2-a]pyridine] | 100 to 1000 | < 100 | 100 to 1000
CCc1c(-c2ccnc3[nH]ncc23)[nH]c2ccc(C3CCN(CCN)CC3)cc12 [Example 656, 2-(4-(3-ethyl-2-(1H-pyrazolo[3,4-b]pyridin-4-yl)-1H-indol-5-yl)piperidin-1-yl)ethan-1-amine] | < 100 | < 100 | 100 to 1000
COc1cc(-c2[nH]c3ccc(C4CCNCC4)cc3c2C(C)C)cc2ncnn12 [Example 158, 7-(3-isopropyl-5-(piperidin-4-yl)-1H-indol-2-yl)-5-methoxy-[1,2,4]triazolo[1,5-a]pyridine] | < 100 | < 100 | 1000 to 50000
Cc1cc(-c2[nH]c3ccc(C4CCN(C(=O)CN(C)C)CC4)cc3c2C(C)C)cc2ncnn12 [Example 536, 2-(dimethylamino)-1-(4-(3-isopropyl-2-(5-methyl-[1,2,4]triazolo[1,5-a]pyridin-7-yl)-1H-indol-5-yl)piperidin-1-yl)ethan-1-one] | < 100 | < 100 | 1000 to 50000
CC(C)c1c(-c2cnc3[nH]ccc3c2)[nH]c2ccc(C3CCN(C4CCN(C)CC4)CC3)cc12 [Example 802, 5-(3-isopropyl-5-(1′-methyl-[1,4′-bipiperidin]-4-yl)-1H-indol-2-yl)-1H-pyrrolo[2,3-b]pyridine] | 100 to 1000 | 100 to 1000 | 100 to 1000
CC(C)c1c(-c2cc(C(F)(F)F)c3nccn3c2)[nH]c2ccc(C3CCN(C(C)C)CC3)cc12 [Example 942, 6-(3-isopropyl-5-(1-isopropylpiperidin-4-yl)-1H-indol-2-yl)-8-(trifluoromethyl)imidazo[1,2-a]pyridine] | < 100 | < 100 | 1000 to 50000
Cc1cc(-c2[nH]c3ccc(C4CCN(C(CO)CO)CC4)cc3c2C(C)C)cc2nccn12 [Example 755, 2-(4-(3-isopropyl-2-(5-methylimidazo[1,2-a]pyridin-7-yl)-1H-indol-5-yl)piperidin-1-yl)propane-1,3-diol] | 100 to 1000 | 100 to 1000 | < 100
CCc1c(-c2ccnc3[nH]ccc23)[nH]c2ccc(C3CCN(C4CC(C)(C)NC(C)(C)C4)CC3)cc12 [Example 838, 4-(3-ethyl-5-(2′,2′,6′,6′-tetramethyl-[1,4′-bipiperidin]-4-yl)-1H-indol-2-yl)-1H-pyrrolo[2,3-b]pyridine] | < 100 | < 100 | 100 to 1000
Cc1ncc(CN2CCC(c3ccc4[nH]c(-c5ccnc6[nH]nc(C)c56)c(C(C)C)c4c3)CC2)[nH]1 [Example 872, 4-(3-isopropyl-5-(1-((2-methyl-1H-imidazol-5-yl)methyl)piperidin-4-yl)-1H-indol-2-yl)-3-methyl-1H-pyrazolo[3,4-b]pyridine] | < 100 | 1000 to 50000 | 100 to 1000
CC(C)c1c(-c2ccn3nccc3c2)[nH]c2ccc(C3CCN(C(=O)CN(C)C)CC3)cc12 [Example 542, 2-(dimethylamino)-1-(4-(3-isopropyl-2-(pyrazolo[1,5-a]pyridin-5-yl)-1H-indol-5-yl)piperidin-1-yl)ethan-1-one] | 100 to 1000 | < 100 | 1000 to 50000
Cc1cc(-c2[nH]c3ccc(C4CCN(Cc5ccn(C)n5)CC4)cc3c2C(C)C)cn2nncc12 [Example 882, 6-(3-isopropyl-5-(1-((1-methyl-1H-pyrazol-3-yl)methyl)piperidin-4-yl)-1H-indol-2-yl)-4-methyl-[1,2,3]triazolo[1,5-a]pyridine] | 100 to 1000 | 1000 to 50000 | 1000 to 50000
FC(F)Cc1c(-c2ccnc3[nH]ncc23)[nH]c2ccc(C3CCNCC3)cc12 [Example 178, 4-(3-(2,2-difluoroethyl)-5-(piperidin-4-yl)-1H-indol-2-yl)-1H-pyrazolo[3,4-b]pyridine] | 100 to 1000 | 100 to 1000 | 1000 to 50000
Cc1cc(-c2[nH]c3ccc(C4CCN(CC(=O)N(C)C)CC4)cc3c2C(C)C)c2ccccc2n1 [Example 327, 2-(4-(3-isopropyl-2-(2-methylquinolin-4-yl)-1H-indol-5-yl)piperidin-1-yl)-N,N-dimethylacetamide] | < 100 | < 100 | 1000 to 50000
